Data on 2 compounds can be found in patent US20090156632A1, “DOSAGE REGIMEN FOR PRASUGREL” (priority 2005, published 2009).

In data set [1] the test system is platelet aggregation induced by 20 μM ADP. The experiment in a line: Clinical Example 1: multiple-dose study, platelet aggregation induced by 20 μM ADP measured turbidometrically. The format is in vivo, human. The conditions noted are these: for IPA: 24 hours after 10th dose, mean ± SE, n = 6. As to the method: (§1) A Comparative Study of the Effects of Prasugrel and Clopidogrel on Platelet Function in Healthy Subjects • Background: Antiplatelet agents such as aspirin and clopidogrel are effective in the secondary prevention of atherothrombotic events. […] This study examined the tolerability, safety, and IPA profile of prasugrel compared with clopidogrel. • Method: A double-blind, placebo-controlled, multiple-dose study of healthy male volunteers randomized into 5 groups (n=6): prasugrel (5, 10 and 20 mg), clopidogrel (75 mg), and placebo. Study medications were taken once daily for 10 days.

Data set [2] is described as follows: Clinical Example 1: tolerability, safety and bleeding time. The conditions noted are these: healthy subjects; multiple oral dosing, 5 to 20 mg for 10 days. The format is in vivo, human. The protocol: as §1
Data set [3] concerns platelet aggregation to 20 μM ADP. The experiment in a line: Clinical Example 2: IPA to 20 μM ADP by turbidometric aggregometry and non-responder rates in aspirin-treated patients. In kind it is in vivo, human. The settings on record: for pre-dose IPA at day 28 / IPA at 4 h after LD: 20 μM ADP. As to the method:
This study analyzed IPA and non-responder rates with prasugrel (Pras), a novel P2Y12 antagonist, vs. clopidogrel (Clop) in aspirin-treated patients. • Methods: After 7-days on aspirin 325 mg, 101 subjects were randomized to 1 of 5 dosing regimens, a loading dose (LD) on day 1 and a daily maintenance dose (MD) on days 2-28: prasugrel—40 mg LD/5 mg MD, 40 mg LD/7.5 mg MD, 60 mg LD/10 mg MD, or 60 mg LD/15 mg MD or clopidogrel—300 mg LD/75 mg MD). IPA to 20 μM ADP was measured by turbidometric aggregometry.

Data set [4] has as its system ADP (5 μM and 20 μM)-induced platelet aggregation. Kind of data set: Clinical Example 3: responders by ADP-induced platelet aggregation (turbidometric aggregometry) after loading dose. The settings on record: for responders: healthy volunteers. The format is in vivo, human. The text has this: Clopidogrel Responders and Nonresponders: A Comparison with Prasugrel a Novel Thienopyridine P2Y12 Receptor Antagonist • Background: Lower levels of inhibition of platelet aggregation (IPA) with clopidogrel have been associated with a higher risk of adverse events after percutaneous coronary intervention (PCI). Thresholds of IPA, objectively defined with Bayesian classification theory, were used to identify responders and non-responders to clopidogrel and prasugrel, a novel thienopyridine P2Y12 receptor antagonist. • Methods: An integrated database of ADP (5 μM and 20 μM)-induced platelet aggregation as measured by turbidometric aggregometry was analyzed from three single-center cross-over clinical pharmacology studies. Subjects (N=112, aged 18-65 years) were healthy volunteers with a baseline maximum platelet aggregation (MPA) of >70% to 20 μM ADP and were randomized to either a clopidogrel 300 mg loading dose (LD) or a prasugrel 60 mg LD. The change in MPA (ΔMPA) from baseline and IPA were evaluated at both 4-5 and 24 hours after the LD. A responder was defined as an individual achieving either a ΔMPA≧15% or an IPA≧20% in response to 20 μM ADP.

Data set [5] relates to platelet aggregation. The experiment in a line: Preclinical studies of prasugrel base versus clopidogrel. The settings on record: preclinical studies involving the base of prasugrel.
Where [6] appears, read: 5 μM ADP, prasugrel 60 mg LD, N = 91.
The mark [7] stands for this setting: 20 μM ADP, prasugrel 60 mg LD, N = 91.
Setting [8] is: 5 μM ADP, clopidogrel 300 mg LD, N = 112.
[9] abbreviates: 20 μM ADP, clopidogrel 300 mg LD, N = 112.

Regarding `CC(=O)Oc1cc2c(s1)CCN(C(C(=O)C1CC1)c1ccccc1F)C2` (stereo not drawn) [prasugrel, 2-Acetoxy-5-(α-cyclopropylcarbonyl-2-fluorobenzyl)-4,5,6,7-tetrahydrothieno[3,2-c]pyridine], in data set [1] (prasugrel 5 mg once daily for 10 days, 20 μM ADP), the IPA was 39.2 ± 4.4%. In data set [1] (prasugrel 10 mg once daily for 10 days, 20 μM ADP), this compound gave an IPA of 58.2 ± 4.9%. Moreover, in data set [1] (prasugrel 20 mg once daily for 10 days, 20 μM ADP), the IPA amounted to 68.3 ± 5.4%. For the same compound, the “IPA, range over doses” value in data set [1] (prasugrel 5, 10 and 20 mg once daily for 10 days, 24 hours after the final dose, 20 μM ADP) was 39.2%-68.3. For the same compound, the tolerability entry in data set [2] is “well tolerated”. In data set [3] (prasugrel 10 mg MD, aspirin-treated patients), the “pre-dose IPA at day 28” value came to 57.5%. Further, in data set [3] (prasugrel 15 mg MD, aspirin-treated patients), the “pre-dose IPA at day 28” value is 65.8%. Also, in data set [3] (prasugrel 40 mg LD, aspirin-treated patients), the “IPA at 4 h after LD” value stood at 60.6%. In addition, in data set [3] (prasugrel 60 mg LD, aspirin-treated patients), the “IPA at 4 h after LD” value is given as 68.4%. For the same compound, the “rate of non-responders compared to standard clopidogrel LD and MD” value in data set [3] (prasugrel LD of 40 or 60 mg and MD of 10 or 15 mg, aspirin-treated patients) was “lower rate of non-responders”. Besides, in data set [4] (setting [6]), the “Number of Responders, IPA ≧ 25%” value is given as 91; the “Number of Responders, ΔMPA ≧ 20%” value stood at 91; the “Percentage of Responders, IPA ≧ 25%” value amounted to 100%; the “Percentage of Responders, ΔMPA ≧ 20%” value came to 100%. The responders in data set [4] (5 μM ADP, prasugrel 60 mg LD) is recorded as 100%. Also, in data set [4] (setting [7]), the “Number of Responders, IPA ≧ 20%” value is on record as 91; the “Number of Responders, ΔMPA ≧ 15%” value was 91; the “Percentage of Responders, IPA ≧ 20%” value was 100%; the “Percentage of Responders, ΔMPA ≧ 15%” value came out at 100%. In data set [4] (20 μM ADP, prasugrel 60 mg LD), this compound came in with a responders of 100%. For the same compound, the “potency relative to clopidogrel” value in data set [5] is recorded as “at least 10 times”.
On to `COC(=O)[C@H](c1ccccc1Cl)N1CCc2sccc2C1` [clopidogrel, reference compound], for which the “subjects demonstrating minimal IPA at Day 10” value in data set [1] (clopidogrel 75 mg once daily for 10 days) is 2 of 6. The IPA in data set [1] (clopidogrel 75 mg once daily for 10 days, 20 μM ADP) worked out at 15.7%. In addition, the IPA in data set [1] (clopidogrel 75 mg once daily for 10 days, 20 μM ADP, listed as Clopidogrel) is listed as 15.7 ± 6.8%. For the same compound, the “pre-dose IPA at day 28” value in data set [3] (clopidogrel 75 mg MD, aspirin-treated patients) is on record as 31.2%. For the same compound, in data set [3] (clopidogrel 75 mg MD, pre-dose during MD), the “non-responder rate (not achieving ≧20% IPA)” value was determined as 46%. In data set [3] (clopidogrel 300 mg LD, 4 h after LD), the “non-responder rate (not achieving ≧20% IPA)” value was 52%. Besides, the “IPA at 4 h after LD” value in data set [3] (clopidogrel 300 mg LD, aspirin-treated patients) is given as 30.0%. In addition, in data set [4] (setting [8]), the “Number of Responders, IPA ≧ 25%” value came to 87; the “Number of Responders, ΔMPA ≧ 20%” value was 82; the “Percentage of Responders, IPA ≧ 25%” value was 78%; the “Percentage of Responders, ΔMPA ≧ 20%” value is listed as 73%. Also, the responders result in data set [4] (5 μM ADP, clopidogrel 300 mg LD) is “approximately 75%”. Moreover, in data set [4] (setting [9]), the “Number of Responders, IPA ≧ 20%” value came to 64; the “Number of Responders, ΔMPA ≧ 15%” value was determined as 68; the “Percentage of Responders, IPA ≧ 20%” value is recorded as 57%; the “Percentage of Responders, ΔMPA ≧ 15%” value is listed as 61%. This compound registered a responders in data set [4] (20 μM ADP, clopidogrel 300 mg LD) of 60%.
